{"source": "ChEMBL document CHEMBL5576066", "about": "“Synthesis and evaluation of 3-hydroxyquinolin-2(1H)-one derivatives as inhibitors of tyrosinase” (Bioorg Med Chem Lett, 2024)"}
{"target": "T1, Tyrosinase (Homo sapiens, UniProt P14679)", "T1 sequence (P14679 whole entry)": "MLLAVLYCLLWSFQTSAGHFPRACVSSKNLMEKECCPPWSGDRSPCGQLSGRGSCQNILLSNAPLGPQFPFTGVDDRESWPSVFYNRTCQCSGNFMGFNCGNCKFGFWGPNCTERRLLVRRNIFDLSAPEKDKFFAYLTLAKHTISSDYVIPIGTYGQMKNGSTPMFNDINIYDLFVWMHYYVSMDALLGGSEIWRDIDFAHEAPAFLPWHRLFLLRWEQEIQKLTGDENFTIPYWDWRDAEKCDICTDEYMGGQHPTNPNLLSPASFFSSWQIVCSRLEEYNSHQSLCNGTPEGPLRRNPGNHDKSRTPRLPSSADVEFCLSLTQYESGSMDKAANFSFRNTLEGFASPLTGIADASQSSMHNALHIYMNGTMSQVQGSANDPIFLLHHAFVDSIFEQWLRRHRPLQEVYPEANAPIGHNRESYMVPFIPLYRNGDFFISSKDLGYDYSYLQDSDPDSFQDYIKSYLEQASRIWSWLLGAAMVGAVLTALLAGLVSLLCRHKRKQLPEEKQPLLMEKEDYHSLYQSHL", "test": "Inhibition of human tyrosinase", "units": {"IC50": "µM"}}
{"smiles": "O=c1oc2ccccc2cc1O", "note": "[3-HYDROXYCOUMARIN]", "IC50": 26}
{"target": "T2, Mushroom tyrosinase (Agaricus bisporus, UniProt O42713+Q00024+C7FF04+C7FF05)", "test": "Competitive inhibition of mushroom tyrosinase using L-DOPA as substrate assessed as inhibition constant by Lineweaver-Burk plots analysis", "format": "protein assay", "units": {"Ki": "µM"}}
{"smiles": "Cc1ccc2[nH]c(=O)c(O)cc2c1", "Ki": 1.41}
{"target": "T2, Mushroom tyrosinase", "test": "Inhibition of mushroom tyrosinase using L-DOPA as substrate by spectrophotometric analysis", "format": "protein assay", "units": {"IC50": "µM"}}
{"smiles": "Cc1cc2cc(O)c(=O)[nH]c2cc1C", "IC50": 43.5}
{"smiles": "Cc1ccc2[nH]c(=O)c(O)cc2c1", "IC50": 6.11}
{"smiles": "Cc1ccc2cc(O)c(=O)[nH]c2c1", "IC50": 173}
{"smiles": "O=c1oc2ccccc2cc1O", "note": "[3-HYDROXYCOUMARIN]", "IC50": 2.49}
{"smiles": "Cc1cc(C)c2cc(O)c(=O)[nH]c2c1", "IC50": 926}
{"smiles": "O=c1[nH]c2cccc(Cl)c2cc1O", "IC50": 92.7}
{"smiles": "CC(C)C(=O)Nc1nc(-c2ccc(O)cc2O)cs1", "IC50": 0.13}
{"smiles": "O=c1[nH]c2ccc(F)cc2cc1O", "IC50": 3.57}
{"smiles": "O=c1[nH]c2ccc(Br)cc2cc1O", "IC50": 2.52}
{"smiles": "O=c1[nH]c2ccccc2cc1O", "IC50": 2.74}
